# Experiments:
# mPGES-1 = biological target: T1, mPGES-1 (Homo sapiens, UniProt O14684); assay: Cell-free mPGES-1 activity assay (PGE2 biosynthesis); type: biochemical; conditions: 10 μM, percentage of control (100%), read-out: mPGES-1 residual activity at 10 μM (%)
# T1 construct: endogenous in cells; host or cells: A549 cells stimulated with IL-1β; microsomal fraction
# T1 sequence (O14684 1-152): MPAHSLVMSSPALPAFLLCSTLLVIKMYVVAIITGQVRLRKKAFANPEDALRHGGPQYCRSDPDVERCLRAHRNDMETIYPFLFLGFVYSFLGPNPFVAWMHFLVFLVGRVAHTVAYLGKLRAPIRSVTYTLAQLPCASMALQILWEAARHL
# Text: (Table 1). […] From the structural point of view, the biological affinities of compounds 3 and 7 (Figure 2A and C) could be positively affected by the 2-bromobenzoyl substituent able to accommodate in a deep binding pocket on the mPGES-1 surface. This moiety interacts by van der Waals contacts with amino acids of the cytoplasmic part and establishes π-stacking with Phe44ChainC and His53ChainC hydrogen bonds with Ser127, and a halogen bond between the bromine atom and the side chain of Aps49ChainC. Furthermore, the 3-phenylphenol and 2-aminobiphenyl moieties of 3 and 7 (Figure 2A and C), respectively, are able to establish a peculiar π-stacking with Tyr130ChainA and a hydrogen bond with Gln134ChainA. […]
# mM glutathione, and 250 mM sucrose) and the protein concentration was defined. Potassium phosphate buffer (0.1 M, pH = 7.4) plus glutathione (2.5 mM) was added to dilute microsomes, which were then seeded in a 96-well plate. […]
# preincubated for 15 min on ice. MK886 (10 µM) and MD-52 (1 µM) were used as reference drugs.
# The reactions started by adding 20 µM of PGH2, and 1 min later, 100 µl of a solution containing FeCl3 (40 mM), citric acid (80 mM), and 11β-PGE 2 (10 µM) were added for stopping the conversion of PGH2. After the extraction of PGE2 and 11β-PGE 2 (internal stardard) by solid-phase extraction, […]
# [1] = system: zymosan-induced peritonitis; assay: Zymosan-induced peritonitis in mice; type: in vivo, mouse; conditions: 3 mg/kg i.p.
# Method: Figure 5 Effect of compound 3 in zymosan-induced peritonitis in mice. Mice were randomly divided into different experimental groups: control group (Ctrl), model group (zymosan + vehicle compound 3), zymosan + compound 3 (i.p. injection 30 min after i.p. injection of zymosan) group, and zymosan + dexamethasone (i.p. injection 30 min after i.p. injection of zymosan) group. At (A) 4 and (B) 24 h after injection, peritoneal exudate from each mouse was recovered, and the total cell number was evaluated. Results are expressed as mean ± SD. For statistical analysis see SI.
# Figure 6 Analysis of cytokine levels collected in the peritoneal exudate of mice from different experimental groups: (A, B) IL-1β, (C, D) IL-6, (E, F) PGE2, and (G, H) IL-10. Results (normalized to exudate levels) are expressed as mean ± SD. For statistical analysis see SI.
# Induction of peritonitis in mice and Enzyme-Linked Immunosorbent Assay (ELISA)
# To examine the anti-inflammatory action of compound 3, we next evaluated the biological activity of
# compound 3 in a mouse model of zymosan-induced peritonitis, as as previously described. 13,14 26, 27
# To this aim, mice were randomly divided into different experimental groups: control group (Ctrl),
# model group (zymosan + vehicle compound 3), zymosan + compound 3 (0.1, 1, and 10 mg/kg), and
# zymosan + dexamethasone (3 mg/kg) group. Animals received the selected compound or
# dexamethasone intraperitoneally (i.p.) 30 min after i.p. injection of zymosan (500 mg/kg)26, 27. Ctrl
# and model groups received an equal volume of vehicle (PBS or DMSO/saline 1:3, respectively).
# Peritoneal exudates were collected at selected time points (4 and 24 h) by washing the cavity with 2
# mL of PBS. Then cell number of lavage fluids was determined by TC10 automated cell counter (Bio-
# Rad, Milan, Italy) using disposable slides. The remaining lavage fluids were centrifuged at 3000 rpm
# for 20 min at 4 °C, and supernatants were frozen at −80 °C for further ELISA analysis according to
# the manufacturer instructions (eBioscience Co., San Diego, CA, USA)10 23 of IL-1β, IL-6, PGE 2 and
# IL-10 following the procedure previously described15-17 28-30. Dexamethasone and zymosan A were
# purchased from Sigma-Aldrich (Milan, Italy). DMSO was purchased from Merck (Italy). Unless
# otherwise stated, all the other reagents were purchased from Carlo Erba (Milan, Italy).
# The data and statistical analysis in this study comply with the international recommendations on
# experimental design and analysis in preclinical pharmacology18-2031-33. The results obtained were
# expressed as the mean ± S.D. or as mean ± S.E.M., as reported in detail in the figure legends. IC 50
# values were calculated by nonlinear regression using GraphPad Prism Version 8.0 software (San
# Diego, CA) one site binding competition. Statistical evaluation of the data was performed by one-
remaining activity at 10 µM (mPGES-1) [%],Structure (SMILES),also measured
> 50,Nc1ccccc1-c1ccc(-c2nnc(NC(=O)c3cc(F)ccc3F)s2)cc1 [compound 8],–
> 50,O=C(Nc1nnc(-c2ccc(-c3cccc(O)c3)cc2)s1)c1cc(F)ccc1F [compound 4],–
> 50,Cc1ccoc1C(=O)Nc1nnc(-c2ccc(-c3cccc(O)c3)cc2)s1 [compound 1],–
> 25,Cc1ccoc1C(=O)Nc1nnc(-c2ccc(-c3ccccc3N)cc2)s1 [compound 5],–
–,"C[C@@H]1C[C@H]2[C@@H]3CCC4=CC(=O)C=C[C@]4(C)[C@@]3(F)[C@@H](O)C[C@]2(C)[C@@]1(O)C(=O)CO [dexamethasone, reference compound]",IL-1β level in peritoneal exudate ([1]; 4 and 24 h): more prominent effect; IL-6 level in peritoneal exudate ([1]; 4 and 24 h): more prominent effect; IL-10 level in peritoneal exudate ([1]; 4 and 24 h): more prominent effect; PGE2 level in peritoneal exudate ([1]; 4 and 24 h): more prominent effect; leukocyte numbers in the peritoneal cavity ([1]; 4 h (P ≤ 0.005) and 24 h (P ≤ 0.01)): significantly reduced
> 50,Cc1cc(C(=O)Nc2nnc(-c3ccc(-c4cccc(O)c4)cc3)s2)cc(Cl)n1 [compound 2],–

# From PMC9841589, “Identification of 2-Aminoacyl-1,3,4-thiadiazoles as Prostaglandin E2 and Leukotriene Biosynthesis Inhibitors” (ACS Medicinal Chemistry Letters, 2022)
